Results: patent US20010056085A1, “Methods of using vesicant drug formulations” (priority 1996, published 2001)
Like-named read-outs stand apart in the source and are kept apart here.

Assay: Half-life of ADR destruction by UVA light in the presence of test compounds (decrease in absorbance at 480 nm)
Assay type: physicochemical
[1] = UVA light, 100 μM test compound with 0.5 μM riboflavin
[2] = UVA light, 100 μM test compound alone

3-Amino Phenylsulfone
Half-Life of ADR Destruction, 100 μM Test Compound and 0.5 μM Riboflavin [1]: 8.60 min

4-Ethoxyphenyl-2-furyl ketone
Half-Life of ADR Destruction, 100 μM Test Compound [2]: 12.5 min
Half-Life of ADR Destruction, 100 μM Test Compound and 0.5 μM Riboflavin [1]: 11.2 min

c1ccc2c(c1)CCCN2 [1,2,3,4-Tetrahydroquinoline]
Half-Life of ADR Destruction, 100 μM Test Compound and 0.5 μM Riboflavin [1]: 100.3 min

Cn1c(=O)c2[nH]c(=O)[nH]c2n(C)c1=O [1,3-Dimethyl Uric acid]
Half-Life of ADR Destruction, 100 μM Test Compound [2]: 75.3 min
Half-Life of ADR Destruction, 100 μM Test Compound and 0.5 μM Riboflavin [1]: 21.5 min

CC(=O)c1ccc2c(c1)OCCO2 [1,4-Benzodioxane-6-yl methyl ketone]
Half-Life of ADR Destruction, 100 μM Test Compound [2]: 43.0 min
Half-Life of ADR Destruction, 100 μM Test Compound and 0.5 μM Riboflavin [1]: 33.4 min

O=C1c2c(O)cccc2Cc2cccc(O)c21 [1,8-Dihydroxyanthrone]
Half-Life of ADR Destruction, 100 μM Test Compound [2]: 27.4 min
Half-Life of ADR Destruction, 100 μM Test Compound and 0.5 μM Riboflavin [1]: 30.1 min

CC(=O)c1cccc2ccccc12 [1-Acetonaphthone]
Half-Life of ADR Destruction, 100 μM Test Compound [2]: 6.69 min
Half-Life of ADR Destruction, 100 μM Test Compound and 0.5 μM Riboflavin [1]: 6.54 min

Nc1cccc2c1Cc1ccccc1C2 [1-Amino-9,10-dihydroanthracene]
Half-Life of ADR Destruction, 100 μM Test Compound [2]: 75.3 min
Half-Life of ADR Destruction, 100 μM Test Compound and 0.5 μM Riboflavin [1]: 75.3 min

O=c1c2ccccc2oc2ncccc12 [1-Azaxanthrone]
Half-Life of ADR Destruction, 100 μM Test Compound [2]: 2.87 min
Half-Life of ADR Destruction, 100 μM Test Compound and 0.5 μM Riboflavin [1]: 2.60 min

Cn1cccc1 [1-Methyl Pyrrole]
Half-Life of ADR Destruction, 100 μM Test Compound and 0.5 μM Riboflavin [1]: 27.4 min

Cn1c(=O)[nH]c2[nH]c(=O)[nH]c2c1=O [1-Methyl Uric acid]
Half-Life of ADR Destruction, 100 μM Test Compound and 0.5 μM Riboflavin [1]: 33.4 min

Cn1cc(C[C@H](N)C(=O)O)c2ccccc21 [1-Methyl-tryptophan]
Half-Life of ADR Destruction, 100 μM Test Compound and 0.5 μM Riboflavin [1]: 9.71 min

OCc1cccc2ccccc12 [1-Naphthalenemethanol]
Half-Life of ADR Destruction, 100 μM Test Compound and 0.5 μM Riboflavin [1]: 50.2 min

Cn1ccc2ccccc21 [1-methyl Indole]
Half-Life of ADR Destruction, 100 μM Test Compound and 0.5 μM Riboflavin [1]: 33.5 min

c1ccc2c3c([nH]c2c1)CCCCCC3 [2,3-Cyclooctenoindole]
Half-Life of ADR Destruction, 100 μM Test Compound and 0.5 μM Riboflavin [1]: 15.8 min

Cc1[nH]c2ccccc2c1C [2,3-Dimethyl Indole]
Half-Life of ADR Destruction, 100 μM Test Compound and 0.5 μM Riboflavin [1]: 20.1 min

COc1cc(OC)c(OC)cc1C=CC(=O)O [2,4,5-Trimethoxy Cinnamic Acid]
Half-Life of ADR Destruction, 100 μM Test Compound and 0.5 μM Riboflavin [1]: 18.8 min

CC(C)(C)c1cc(C(C)(C)C)c(N)c(C(C)(C)C)c1 [2,4,6-Tri-tert-butyl Aniline]
Half-Life of ADR Destruction, 100 μM Test Compound and 0.5 μM Riboflavin [1]: 43.0 min

Nc1c(-c2ccccc2)cc(-c2ccccc2)cc1-c1ccccc1 [2,4,6-Triphenylaniline]
Half-Life of ADR Destruction, 100 μM Test Compound and 0.5 μM Riboflavin [1]: 33.5 min

Nc1ccc(F)cc1F [2,4-Difluoro Aniline]
Half-Life of ADR Destruction, 100 μM Test Compound and 0.5 μM Riboflavin [1]: 7.92 min

Cc1c[nH]c(C)c1 [2,4-Dimethyl Pyrrole]
Half-Life of ADR Destruction, 100 μM Test Compound and 0.5 μM Riboflavin [1]: 20.1 min

CCc1c(C)c[nH]c1C [2,4-Dimethyl-3-ethyl Pyrrole]
Half-Life of ADR Destruction, 100 μM Test Compound and 0.5 μM Riboflavin [1]: 20.1 min

Nc1ccc([N+](=O)[O-])cc1[N+](=O)[O-] [2,4-Dinitro Aniline]
Half-Life of ADR Destruction, 100 μM Test Compound: 75.3 min
Half-Life of ADR Destruction, 100 μM Test Compound and 0.5 μM Riboflavin: 50.2 min

Nc1ccc(N)c(S(=O)(=O)O)c1 [2,5-Diamino Benzene sulfonic acid]
Half-Life of ADR Destruction, 100 μM Test Compound and 0.5 μM Riboflavin [1]: 27.4 min

O=S(=O)(O)c1cc(O)ccc1O [2,5-Dihydroxy Benzenesulfonic acid]
Half-Life of ADR Destruction, 100 μM Test Compound and 0.5 μM Riboflavin [1]: 25.1 min

Cc1ccc2[nH]c(C)cc2c1 [2,5-Dimethyl Indole]
Half-Life of ADR Destruction, 100 μM Test Compound [2]: 17.7 min
Half-Life of ADR Destruction, 100 μM Test Compound and 0.5 μM Riboflavin [1]: 5.79 min

Cc1ccc(C)[nH]1 [2,5-Dimethyl Pyrrole]
Half-Life of ADR Destruction, 100 μM Test Compound and 0.5 μM Riboflavin [1]: 9.12 min

Nc1c(F)cccc1F [2,6-Difluoro Aniline]
Half-Life of ADR Destruction, 100 μM Test Compound and 0.5 μM Riboflavin [1]: 27.4 min

Cc1cc2cccc(C)c2[nH]1 [2,7-Dimethyl Indole]
Half-Life of ADR Destruction, 100 μM Test Compound and 0.5 μM Riboflavin [1]: 6.27 min

OCCOc1ccc2ccccc2c1 [2-(2-naphthyloxy) Ethanol]
Half-Life of ADR Destruction, 100 μM Test Compound [2]: 30.1 min
Half-Life of ADR Destruction, 100 μM Test Compound and 0.5 μM Riboflavin [1]: 2.95 min

O=C(O)CSc1ccc2ccccc2c1 [2-(2-naphthylthio) Acetic acid]
Half-Life of ADR Destruction, 100 μM Test Compound [2]: 9.41 min
Half-Life of ADR Destruction, 100 μM Test Compound and 0.5 μM Riboflavin [1]: 8.14 min

COc1ccc(C(=O)c2cccs2)cc1 [2-(4-Methoxybenzoyl)-thiophene]
Half-Life of ADR Destruction, 100 μM Test Compound [2]: 9.41 min
Half-Life of ADR Destruction, 100 μM Test Compound and 0.5 μM Riboflavin [1]: 8.36 min

CC(=O)c1ccc2ccccc2c1 [2-Acetonaphthone]
Half-Life of ADR Destruction, 100 μM Test Compound [2]: 8.36 min
Half-Life of ADR Destruction, 100 μM Test Compound and 0.5 μM Riboflavin [1]: 7.92 min

CC(=O)c1ccc[nH]1 [2-Acetyl Pyrrole]
Half-Life of ADR Destruction, 100 μM Test Compound [2]: 50.2 min
Half-Life of ADR Destruction, 100 μM Test Compound and 0.5 μM Riboflavin [1]: 30.1 min

CC(=O)c1cccn1C [2-Acetyl-1-methyl Pyrrole]
Half-Life of ADR Destruction, 100 μM Test Compound and 0.5 μM Riboflavin [1]: 50.2 min

Nc1ccccc1S(=O)(=O)O [2-Amino Benzenesulfonic acid]
Half-Life of ADR Destruction, 100 μM Test Compound and 0.5 μM Riboflavin [1]: 20.1 min

Nc1ccccc1CO [2-Amino Benzyl Alcohol]
Half-Life of ADR Destruction, 100 μM Test Compound and 0.5 μM Riboflavin [1]: 3.96 min

NCc1ccccc1N [2-Amino Benzylamine]
Half-Life of ADR Destruction, 100 μM Test Compound and 0.5 μM Riboflavin [1]: 14.3 min

Nc1ccccc1CCO [2-Amino Phenylethyl Alcohol]
Half-Life of ADR Destruction, 100 μM Test Compound and 0.5 μM Riboflavin [1]: 13.7 min

Cc1cccc(CO)c1N [2-Amino-3-Methyl Benzyl Alcohol]
Half-Life of ADR Destruction, 100 μM Test Compound and 0.5 μM Riboflavin [1]: 18.8 min

Cc1ccc(N)c(CO)c1 [2-Amino-5-Methyl Benzyl Alcohol]
Half-Life of ADR Destruction, 100 μM Test Compound and 0.5 μM Riboflavin [1]: 24.5 ± 8.0 min

NC(=O)c1ccccc1N [2-Aminobenzamide]
Half-Life of ADR Destruction, 100 μM Test Compound and 0.5 μM Riboflavin [1]: 33.5 min

Nc1ccccc1C(=O)c1ccccc1 [2-Aminobenzophenone]
Half-Life of ADR Destruction, 100 μM Test Compound and 0.5 μM Riboflavin: 16.7 min

Nc1ccc2ccccc2c1 [2-Aminonaplithalene]
Half-Life of ADR Destruction, 100 μM Test Compound and 0.5 μM Riboflavin: 20.1 min

O=C(O)c1cc2ccccc2o1 [2-Benzofurancarboxylic acid]
Half-Life of ADR Destruction, 100 μM Test Compound and 0.5 μM Riboflavin [1]: 50.2 min

O=C(O)c1ccccc1C(=O)c1ccccc1 [2-Benzophenone-carboxylic acid]
Half-Life of ADR Destruction, 100 μM Test Compound: 50.2 min

O=C(c1ccccc1)c1ccc[nH]1 [2-Benzoyl pyrrole]
Half-Life of ADR Destruction, 100 μM Test Compound [2]: 50.2 min
Half-Life of ADR Destruction, 100 μM Test Compound and 0.5 μM Riboflavin [1]: 33.5 min

O=C(c1ccccc1)c1ccccn1 [2-Benzoylpyridine]
Half-Life of ADR Destruction, 100 μM Test Compound [2]: 100.3 min
Half-Life of ADR Destruction, 100 μM Test Compound and 0.5 μM Riboflavin [1]: 100.3 min

O=C(c1ccccc1)c1cccs1 [2-Benzoylthiophene]
Half-Life of ADR Destruction, 100 μM Test Compound [2]: 9.41 min
Half-Life of ADR Destruction, 100 μM Test Compound and 0.5 μM Riboflavin [1]: 8.85 min

O=C(O)c1ccc2c(c1)-c1ccccc1-2 [2-Biphenylene Carboxylic Acid]
Half-Life of ADR Destruction, 100 μM Test Compound and 0.5 μM Riboflavin [1]: 15.8 min

CCCCc1ccccc1N [2-Butyl Aniline]
Half-Life of ADR Destruction, 100 μM Test Compound and 0.5 μM Riboflavin [1]: 10.2 min

CCc1ccc[nH]1 [2-Ethyl Pyrrole]
Half-Life of ADR Destruction, 100 μM Test Compound and 0.5 μM Riboflavin [1]: 10.0 min

Nc1ccccc1F [2-Fluoro Aniline]
Half-Life of ADR Destruction, 100 μM Test Compound and 0.5 μM Riboflavin [1]: 8.36 min

O=C(c1ccco1)c1cccs1 [2-Furyl-2-thienyl ketone]
Half-Life of ADR Destruction, 100 μM Test Compound [2]: 7.00 min

Oc1ccc2c(c1)[nH]c1ccccc12 [2-Hydroxy Carbazole]
Half-Life of ADR Destruction, 100 μM Test Compound and 0.5 μM Riboflavin (UVA light, with 0.5 μM riboflavin, +4% DMSO): 75.3 ± 35.4 min

N[C@@H](Cc1ccccc1O)C(=O)O [2-Hydroxy Phenylalanine]
Half-Life of ADR Destruction, 100 μM Test Compound and 0.5 μM Riboflavin [1]: 15.1 min

Oc1ccc2ccccc2c1 [2-Hydroxynaphthalene]
Half-Life of ADR Destruction, 100 μM Test Compound [2]: 30.1 min
Half-Life of ADR Destruction, 100 μM Test Compound and 0.5 μM Riboflavin [1]: 23.2 min

COc1ccccc1CN [2-Methoxy Benzylamine]
Half-Life of ADR Destruction, 100 μM Test Compound and 0.5 μM Riboflavin [1]: 43.0 min

COc1ccccc1C=CC=O [2-Methoxy Cinnamaldehyde]
Half-Life of ADR Destruction, 100 μM Test Compound and 0.5 μM Riboflavin [1]: 50.2 min

COc1ccccc1O [2-Methoxy Phenol]
Half-Life of ADR Destruction, 100 μM Test Compound [2]: 50.2 min
Half-Life of ADR Destruction, 100 μM Test Compound and 0.5 μM Riboflavin [1]: 50.2 min

COc1ccc2ccccc2c1CO [2-Methoxy-1-naphthalenemethanol]
Half-Life of ADR Destruction, 100 μM Test Compound and 0.5 μM Riboflavin [1]: 4.43 min

COc1[nH]c2ccccc2c1CN(C)C [2-Methoxy-3-(dimethylaminomethyl) indole]
Half-Life of ADR Destruction, 100 μM Test Compound [2]: 75.3 min
Half-Life of ADR Destruction, 100 μM Test Compound and 0.5 μM Riboflavin [1]: 13.7 min

COc1ccc2[nH]c3ccccc3c(=O)c2c1 [2-Methoxy-9(10H) Acridone]
Half-Life of ADR Destruction, 100 μM Test Compound: 23.2 min
Half-Life of ADR Destruction, 100 μM Test Compound and 0.5 μM Riboflavin: 16.7 min

COc1ccccc1C(C)CO (stereo not drawn) [2-Methoxy-β-Methyl-Phenylethyl Alcohol]
Half-Life of ADR Destruction, 100 μM Test Compound [2]: 43.0 min
Half-Life of ADR Destruction, 100 μM Test Compound and 0.5 μM Riboflavin [1]: 8.14 min

COc1ccc2ccccc2c1C(=O)O [2-Methoxynaphthalene-1-carboxylic acid]
Half-Life of ADR Destruction, 100 μM Test Compound [2]: 33.5 min
Half-Life of ADR Destruction, 100 μM Test Compound and 0.5 μM Riboflavin [1]: 2.95 min

Cc1cc2ccccc2[nH]1 [2-Methyl Indole]
Half-Life of ADR Destruction, 100 μM Test Compound and 0.5 μM Riboflavin [1]: 7.00 min

Cc1[nH]c2ccccc2c1CC(=O)O [2-Methylindole-3-acetic acid]
Half-Life of ADR Destruction, 100 μM Test Compound and 0.5 μM Riboflavin [1]: 4.57 ± 2.92 min

O=Cc1ccc2ccccc2c1 [2-Naphthaldehyde]
Half-Life of ADR Destruction, 100 μM Test Compound [2]: 6.14 min
Half-Life of ADR Destruction, 100 μM Test Compound and 0.5 μM Riboflavin [1]: 5.68 min
